From ChEMBL document CHEMBL1132325, “4-Heterocyclohexanone-based inhibitors of the serine protease plasmin” (J Med Chem, 1999)

What was measured:
Kallikrein-1 = Kallikrein-1 (Homo sapiens, UniProt P06870); test: Compound was evaluated for its binding affinity against kallikrein
Prothrombin = Prothrombin (Homo sapiens, UniProt P00734); test: Compound was evaluated for its binding affinity against thrombin
Plasminogen [1] = target: T1, Plasminogen (Homo sapiens, UniProt P00747); test: (§1) Compound was evaluated for its binding affinity against plasmin
T1 sequence (P00747 97-580 limits assumed): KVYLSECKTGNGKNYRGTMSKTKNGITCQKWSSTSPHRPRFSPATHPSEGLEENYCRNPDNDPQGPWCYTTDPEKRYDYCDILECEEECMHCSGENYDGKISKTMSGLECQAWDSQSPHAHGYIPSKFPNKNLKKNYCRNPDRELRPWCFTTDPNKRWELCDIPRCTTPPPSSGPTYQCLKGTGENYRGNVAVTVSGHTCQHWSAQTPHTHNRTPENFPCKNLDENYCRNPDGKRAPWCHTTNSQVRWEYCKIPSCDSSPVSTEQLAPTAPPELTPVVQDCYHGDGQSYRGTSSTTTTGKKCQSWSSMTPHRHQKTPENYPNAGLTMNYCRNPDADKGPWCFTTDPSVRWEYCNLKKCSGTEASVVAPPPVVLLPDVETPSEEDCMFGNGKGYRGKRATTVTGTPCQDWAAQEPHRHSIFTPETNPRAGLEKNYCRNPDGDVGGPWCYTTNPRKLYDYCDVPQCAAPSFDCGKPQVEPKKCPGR
T1 sequence (P00747 581-810 limits assumed): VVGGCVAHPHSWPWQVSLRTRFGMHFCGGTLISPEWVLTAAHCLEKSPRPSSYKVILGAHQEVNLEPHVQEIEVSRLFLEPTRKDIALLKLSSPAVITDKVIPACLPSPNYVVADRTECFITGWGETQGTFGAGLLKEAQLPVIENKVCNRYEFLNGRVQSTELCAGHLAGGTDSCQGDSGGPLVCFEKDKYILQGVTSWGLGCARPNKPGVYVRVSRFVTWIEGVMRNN

Plasminogen [2] = target: T1, Plasminogen; test: as §1; remark: listed apart in the source
Serine protease 1 = Serine protease 1 (Homo sapiens, UniProt P07477); test: Compound was evaluated for its binding affinity against trypsin
Sequence of Serine protease 1 (P07477 whole entry): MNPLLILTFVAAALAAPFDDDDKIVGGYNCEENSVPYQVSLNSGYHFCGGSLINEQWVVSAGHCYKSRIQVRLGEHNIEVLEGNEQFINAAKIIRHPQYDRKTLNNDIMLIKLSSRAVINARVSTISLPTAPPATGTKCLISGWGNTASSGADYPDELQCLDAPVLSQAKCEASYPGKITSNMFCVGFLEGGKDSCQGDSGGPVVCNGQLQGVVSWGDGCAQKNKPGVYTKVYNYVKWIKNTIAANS

Sequence of Kallikrein-1 (P06870 whole entry): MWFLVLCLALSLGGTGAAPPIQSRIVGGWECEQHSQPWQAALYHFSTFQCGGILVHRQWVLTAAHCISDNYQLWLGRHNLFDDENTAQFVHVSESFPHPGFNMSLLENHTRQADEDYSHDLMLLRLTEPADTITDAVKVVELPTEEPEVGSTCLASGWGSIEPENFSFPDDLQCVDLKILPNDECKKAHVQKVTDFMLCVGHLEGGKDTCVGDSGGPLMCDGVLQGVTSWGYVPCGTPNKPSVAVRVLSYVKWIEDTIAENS

| Ki (Kallikrein-1) | Ki (Prothrombin) | Ki (Plasminogen [1]) | Ki (Plasminogen [2]) | Ki (Serine protease 1) | Compound |
| --- | --- | --- | --- | --- | --- |
| 630 µM | 720 µM | – | – | – | CC[C@H](C)[C@@H](N)C(=O)N[C@@H](Cc1ccccc1)C(=O)N(CCCCCCN)C1CSCCC1=O (some centres not stated) |
| – | – | 520 µM | – | – | CCC(C)[C@@H](N)C(=O)N[C@@H](Cc1ccccc1)C(=O)N(CCCCCCN)C1CCCCC1 (some centres not stated) |
| – | – | 130 µM | 50 µM | 1700 µM | CC[C@@H](C)[C@@H](N)C(=O)N[C@@H](Cc1ccccc1)C(=O)N(CCCCCCN)C1CSCCC1=O (some centres not stated) |

The next lines start with the compound.

| Compound | Ki (Kallikrein-1) | Ki (Prothrombin) | Ki (Plasminogen [1]) | Ki (Plasminogen [2]) | Ki (Serine protease 1) |
| --- | --- | --- | --- | --- | --- |
| CC[C@@H](C)[C@@H](N)C(=O)N[C@@H](Cc1ccccc1)C(=O)NC1CSCCC1=O (stereo in doubt; form 2) | – | – | 9000 µM | – | – |
| NCCCCCCN(CCCCCCN)C1CSCCC1=O (configuration not stated) | > 10000 µM | > 10000 µM | – | 400 µM | 1400 µM |
| CC[C@@H](C)[C@@H](N)C(=O)N[C@@H](Cc1ccccc1)C(=O)NC1CSCCC1=O (stereo in doubt; form 1) | – | – | 16000 µM | – | – |
